Assay: Thermal stability test
Assay type: physicochemical
Method: The test compound was placed in a glass bottle and allowed to stand under the following conditions (1) and (2). After a certain period of time had elapsed, the residual rate of the active ingredient [compound (I)] in the test compound was measured by high performance liquid chromatography.
(1): Closed state, 60° C.;
(2): Non-closed state, 40° C., humidity 75%.
The measurement conditions in high performance liquid chromatography are as follows.
Column: L-column ODS [4.6 mm×250 mm, manufactured by Chemicals Evaluation and Research Institute, Japan]
Mobile layer: acetonitrile/22 mM potassium dihydrogenphosphate buffer/methanol=455/350/195 (V/V/V) (adjusted to pH 5.5 by phosphoric acid)
Column temperature: 40° C.
Detection wavelength: 220 nm
The residual rate (%) was calculated by the following formula.
The residual rate (%)=[1−(sum of peak area percentages of impurities and decomposed products)]×100

[1] = Condition (1): closed state, 60° C.
[2] = Condition (1): closed state, 60° C., time 0 month
[3] = Condition (1): closed state, 60° C., time 1 month
[4] = Condition (1): closed state, 60° C., time 3 months
[5] = Condition (1): closed state, 60° C., time 6 months
[6] = Condition (2): non-closed state, 40° C., humidity 75%
[7] = Condition (2): non-closed state, 40° C., humidity 75%, time 0 month
[8] = Condition (2): non-closed state, 40° C., humidity 75%, time 1 month
[9] = Condition (2): non-closed state, 40° C., humidity 75%, time 3 months
[10] = Condition (2): non-closed state, 40° C., humidity 75%, time 6 months
[11] = Condition (1): closed state, 60° C., time 0 month, dihydrochloride
[12] = Condition (1): closed state, 60° C., time 1 month, dihydrochloride
[13] = Condition (2): non-closed state, 40° C., humidity 75%, dihydrochloride
[14] = Condition (2): non-closed state, 40° C., humidity 75%, time 0 month, dihydrochloride

2-Amino-1,4-dihydro-6-methyl-4-(3-nitrophenyl)-3,5-pyridinedicarboxylic acid 3-(1-diphenylmethylazetidin-3-yl)ester 5-isopropyl Ester Dinaphthalenesulfonate [Example 7]
stability (in words) [1]: equal in stability | Residual rate of Compound (I) [2]: 99.4% | Residual rate of Compound (I) [3]: 97.3% | Residual rate of Compound (I) [4]: 95.4% | Residual rate of Compound (I) [5]: 93.0%

CC1=C(C(=O)OC(C)C)C(c2cccc([N+](=O)[O-])c2)C(C(=O)OC2CN(C(c3ccccc3)c3ccccc3)C2)=C(N)N1.Cc1ccc(S(=O)(=O)O)cc1.Cc1ccc(S(=O)(=O)O)cc1 (centres unmarked) [Example 6, 2-Amino-1,4-dihydro-6-methyl-4-(3-nitrophenyl)-3,5-pyridinedicarboxylic acid 3-(1-diphenylmethylazetidin-3-yl)ester 5-isopropyl ester di-p-toluenesulfonate]
Residual rate of Compound (I) [2]: 99.6% | Residual rate of Compound (I) [3]: 98.8% | Residual rate of Compound (I) [4]: 98.3% | Residual rate of Compound (I) [5]: 97.3% | stability (in words) [6]: excellent stability | Residual rate of Compound (I) [7]: 99.6% | Residual rate of Compound (I) [8]: 97.5% | Residual rate of Compound (I) [9]: 96.4% | Residual rate of Compound (I) [10]: 94.5%

CC1=C(C(=O)OC(C)C)C(c2cccc([N+](=O)[O-])c2)C(C(=O)OC2CN(C(c3ccccc3)c3ccccc3)C2)=C(N)N1.Cl.Cl (centres unmarked) [Comparative Example 2, 2-Amino-1,4-dihydro-6-methyl-4-(3-nitrophenyl)-3,5-pyridinedicarboxylic Acid 3-(1-diphenylmethylazetidin-3-yl)ester 5-isopropyl Ester Dihydrochloride, reference compound]
stability (in words) [1]: extremely low stability | Residual rate of Compound (I) [11]: 97.3% | Residual rate of Compound (I) [12]: 10.3% | stability (in words) [13]: extremely low stability | Residual rate of Compound (I) [14]: 97.3% | Residual rate of Compound (I) (Condition (2): non-closed state, 40° C., humidity 75%, time 1 month, Dihydrochloride): 11.3%

CC1=C(C(=O)OC(C)C)C(c2cccc([N+](=O)[O-])c2)C(C(=O)OC2CN(C(c3ccccc3)c3ccccc3)C2)=C(N)N1.O=C(O)CC(O)(CC(=O)O)C(=O)O (single isomer, unassigned) [Example 2, 2-Amino-1,4-dihydro-6-methyl-4-(3-nitrophenyl)-3,5-pyridinedicarboxylic acid 3-(1-diphenylmethylazetidin-3-yl)ester 5-isopropyl ester monocitrate]
stability (in words) [1]: equal in stability | Residual rate of Compound (I) [2]: 98.8% | Residual rate of Compound (I) [3]: 96.9% | Residual rate of Compound (I) [4]: 95.8%

2-Amino-1,4-dihydro-6-methyl-4-(3-nitrophenyl)-3,5-pyridinedicarboxylic Acid 3-(1-diphenylmethylazetidin-3-yl)ester 5-isopropyl Ester Hemifumarate [Comparative Example 4, reference compound]
stability (in words) [1]: did not have high stability | Residual rate of Compound (I) [2]: 99.7% | Residual rate of Compound (I) [3]: 96.7% | Residual rate of Compound (I) [4]: 93.0% | stability (in words) [6]: low stability | Residual rate of Compound (I) [7]: 99.7% | Residual rate of Compound (I) [8]: 94.8% | Residual rate of Compound (I) [9]: 91.3%

CC1=C(C(=O)OC(C)C)C(c2cccc([N+](=O)[O-])c2)C(C(=O)OC2CN(C(c3ccccc3)c3ccccc3)C2)=C(N)N1.O=S(=O)(O)O (centres unmarked) [Comparative Example 3, 2-Amino-1,4-dihydro-6-methyl-4-(3-nitrophenyl)-3,5-pyridinedicarboxylic Acid 3-(1-diphenylmethylazetidin-3-yl)ester 5-isopropyl Ester Monosulfate, reference compound]
stability (in words) [1]: did not have high stability | Residual rate of Compound (I) [2]: 99.5% | Residual rate of Compound (I) [3]: 96.9% | Residual rate of Compound (I) [4]: 94.9% | Residual rate of Compound (I) [5]: 92.8% | stability (in words) [6]: low stability | Residual rate of Compound (I) [7]: 99.5% | Residual rate of Compound (I) [8]: 93.9% | Residual rate of Compound (I) [9]: 88.9% | Residual rate of Compound (I) [10]: 84.8%

CC1=C(C(=O)OC(C)C)C(c2cccc([N+](=O)[O-])c2)C(C(=O)OC2CN(C(c3ccccc3)c3ccccc3)C2)=C(N)N1.O=S(=O)(O)c1ccccc1.O=S(=O)(O)c1ccccc1 (centres unmarked) [Example 5, 2-Amino-1,4-dihydro-6-methyl-4-(3-nitrophenyl)-3,5-pyridinedicarboxylic acid 3-(1-diphenylmethylazetidin-3-yl)ester 5-isopropyl ester dibenzenesulfonate]
stability (in words) [1]: equal in stability | Residual rate of Compound (I) [2]: 99.7% | Residual rate of Compound (I) [3]: 98.6% | Residual rate of Compound (I) [4]: 96.5% | Residual rate of Compound (I) [5]: 93.3%

CC1=C(C(=O)OC(C)C)C(c2cccc([N+](=O)[O-])c2)C(C(=O)OC2CN(C(c3ccccc3)c3ccccc3)C2)=C(N)N1.Cl.Cl (centres unmarked) [Comparative Example 1, 2-Amino-1,4-dihydro-6-methyl-4-(3-nitrophenyl)-3,5-pyridinedicarboxylic acid 3-(1-diphenylmethylazetidin-3-yl)ester 5-isopropyl ester dihydrochloride, reference compound]
stability (in words) [1]: extremely low stability | Residual rate of Compound (I) [11]: 98.1% | Residual rate of Compound (I) [12]: 60.0% | Residual rate of Compound (I) [4]: 58.9% | stability (in words) [13]: low stability | Residual rate of Compound (I) [14]: 98.1% | Residual rate of Compound (I) [8]: 62.9% | Residual rate of Compound (I) [9]: 59.0%

CC1=C(C(=O)OC(C)C)C(c2cccc([N+](=O)[O-])c2)C(C(=O)OC2CN(C(c3ccccc3)c3ccccc3)C2)=C(N)N1.CS(=O)(=O)O.CS(=O)(=O)O (centres unmarked) [Example 3, 2-Amino-1,4-dihydro-6-methyl-4-(3-nitrophenyl)-3,5-pyridinedicarboxylic acid 3-(1-diphenylmethylazetidin-3-yl)ester 5-isopropyl ester dimethanesulfonate]
Residual rate of Compound (I) [2]: 99.6% | Residual rate of Compound (I) [3]: 98.7% | Residual rate of Compound (I) [4]: 98.5%

CC1=C(C(=O)OC(C)C)C(c2cccc([N+](=O)[O-])c2)C(C(=O)OC2CN(C(c3ccccc3)c3ccccc3)C2)=C(N)N1.CS(=O)(=O)O.CS(=O)(=O)O.CS(=O)(=O)O (centres unmarked) [Example 4, 2-Amino-1,4-dihydro-6-methyl-4-(3-nitrophenyl)-3,5-pyridinedicarboxylic acid 3-(1-diphenylmethylazetidin-3-yl)ester 5-isopropyl ester trimethanesulfonate]
Residual rate of Compound (I) [2]: 99.5% | Residual rate of Compound (I) [3]: 98.6% | Residual rate of Compound (I) [4]: 98.1% | stability (in words) [6]: excellent stability | Residual rate of Compound (I) [7]: 99.5% | Residual rate of Compound (I) [8]: 99.1% | Residual rate of Compound (I) [9]: 98.8%
